Among the data in a melting point compilation (Tetko et al.; mined from patent text by program, amines drawn as free bases though some values may be those of a salt) are melting point values, retold here.

SMILES strings stand for the structures. Where only a bound is given, the exact number is not on record here.

Regarding `Nc1ccc(NC(=O)c2ccc(C(=O)Nc3ccc(N)cc3Cl)cc2)c(Cl)c1`, the melting point (commonly the temperature of the solid-liquid transition) came out at 261 °C.
Next, `CCN(C)C(=O)NS(=O)(=O)c1ccccc1OC(Cl)=CCl`: 179 to 180 °C; `CCc1nc2c([nH]1)C(=O)N(C)CN2c1ccc(Cl)cc1Cl`: 200 to 201 °C.
Next, `COc1cccc(N(CC(=O)O)C(=O)CN2C(=O)c3ccccc3C2=O)c1`: 198 °C; `CCNC(=O)CC1CN=C(c2cc3cc(Oc4ccc(S(C)(=O)=O)nc4)cc(CC)c3[nH]2)S1` (stereo not drawn): 227 to 229 °C; `COc1cccc(NC(=O)NC2N=C(c3ccccc3F)c3cccc(C)c3N(CC(=O)N3CC4CCC(CC4)C3)C2=O)c1` (stereo not drawn): 241 to 243 °C.
The figure for `Nc1c(NCc2ccccc2F)ccnc1Cl` is 181 to 187 °C.
As to `COC(=O)c1nn(-c2ccccc2)c(=O)c2c1c1cc(Cl)ccc1n2C`, the melting point lay within 265 to 266 °C.
Next, `CCc1c(-c2ccc(OCc3ccccc3)cc2)cn2cccc(OCc3ccccc3)c12`: 104 to 105 °C; `CCS(=O)(=O)c1cccnc1S(=O)(=O)NC(C)(C)C`: 58 to 63 °C.
Next, `Cc1ccc2c(C3CCN(CCN4CCN(C(C)C)C4=O)CC3)cn(-c3ccc(F)cc3)c2c1`: 124 °C; `O=C(O)CCNC(=O)c1ccc(N(Cc2ccc(C3=CCCCC3)cc2)C(=O)C=Cc2cccc(OC(F)(F)F)c2)cc1`: 178 to 180 °C.
The figure for `COc1ccc(S(=O)(=O)Nc2nc(-c3ccccc3)nn2C)cc1OC` is 279 to 280 °C.
`Cc1nc(NC(=O)Nc2cccc3c2C2CCCCN2C3=O)cs1` (stereo not drawn) yielded a melting point of 146 °C.
Next, `COC1CCC2(C)C(CCC3C2CCC2(C)C(C(C)=O)CCC32)C1` (stereo not drawn): 125 to 126 °C; `Cc1oc(-c2ccco2)nc1COc1ccc(COc2nn(Cc3ccccc3)cc2C=O)cn1`: 104 to 105 °C.
The figure for `Brc1ccc(-c2nn[nH]n2)cc1` is 271 to 273 °C; for `Cc1ncccc1-c1nc(C(F)(F)F)cn1-c1ccc(S(N)(=O)=O)cc1` it is 235 to 237 °C.
As to `CC1(C(=O)Nc2ccc(S(C)(=O)=O)c(C(F)(F)F)c2)CC1`, the melting point fell in the range of 135 to 138 °C.
The figure for `O=C(NOCCO)c1cc(Cl)c(F)c(F)c1Nc1ccc(I)cc1F` is 180 °C; for `Fc1c(F)c(C(F)(F)F)c(F)c(F)c1Nc1ccc(-c2ccc(Nc3c(F)c(F)c(C(F)(F)F)c(F)c3F)cc2)cc1` it is 179 to 180 °C; for `C#CCCCCNC(=O)c1cnc(OCC(O)CNC(C)(C)C)s1` (stereo not drawn) it is 140 to 148 °C.
The figure for `C#CCC1CC2C3CCC(=O)C3(C)CCC2C2(C)CCC(=O)C=C12` (stereo not drawn) is 145 to 146 °C; for `COc1c(C)c(C)c(OC)c(CBr)c1C` it is 71 to 72 °C; for `NS(=O)(=O)c1cccc(S(=O)(=O)NC2CCC2)c1` it is 140 to 143 °C.
The figure for `Cn1ncc(C(=O)Nc2ccc(-n3nc(C(F)(F)F)cc3C(F)(F)F)cc2)c1[N+](=O)[O-]` is 214 to 216 °C; for `CSC1C(=O)Nc2c(C(=O)c3ccccc3F)cccc21` (stereo not drawn) it is 147 to 148 °C; for `COc1ccc(C(Cl)=NS(=O)(=O)C=Cc2ccc(Cl)c(Cl)c2)cc1OC` it is 120 to 125 °C.
Take `O=C(O)CCCCCc1nn(-c2ccc(F)cc2)c2c1CCCC2`: the melting point was 95 to 96 °C.
Consider `CC(=O)/C=C/Sc1ccc2ccccc2c1`, for which the melting point lay in the range of 62 to 64 °C.
`CCOC(=O)N=NC(=O)OCC` returned a melting point of 120 to 121 °C.
Take `CC1C(=O)N(c2ccc(O)cc2)C(=S)N1c1ccc(Oc2ccc(F)cc2)cc1` (stereo not drawn): the melting point was determined as 148 °C.
As to `Cc1ccc(C(=O)NC/C=C/c2ccccc2)cc1`, the melting point is 134 °C.
Regarding `COC1=C(OC)C(=O)C(CCCCCCc2ccc(O)cc2)=C(C)C1=O`, the melting point was in the range of 87 to 88 °C.
The figure for `Nc1nc2ccccc2c2c1nc1n2OCC1` is greater than 300 °C; for `O=C1c2ccccc2C(=O)N1OC1CCCCCC1` it is 110 to 112 °C.
The figure for `N#Cc1cc([N+](=O)[O-])c2sc(N3CCC4(CC3)OCCO4)nc(=O)c2c1` is 217 to 220 °C.
Next, `C#CC[C@H](c1nc2cc(Cl)ccc2c(=O)n1Nc1ccccc1)N(CCCN)C(=O)c1cccc(F)c1F`: 168 to 170 °C; `COC(=O)c1cccc2c(C(=O)c3ccccc3)c(C)oc12`: 70 to 72 °C; `COc1cc(OC)nc(NC(=O)NS(=O)(=O)Oc2ccccc2OCCCl)n1`: 132 to 134 °C.
The compound `CCN(CC)C(=O)c1cncc(OC2SCC(O)C(O)C2O)c1` (stereo not drawn) displayed a melting point of 143 °C.
The figure for `CCn1ncc(OCc2ccc([Si](C)(C)C)cc2)c(Cl)c1=O` is 122 to 125 °C; for `COc1cc(-c2csc(NS(=O)(=O)c3ccccc3)n2)ccc1OCc1ccccc1` it is 152 to 155 °C.
The figure for `C=CCCCc1ccc(C=CC(=O)c2ccc(OCC=C(C)C)cc2)c(OCC(=O)O)c1` is 116 to 118 °C; for `COc1cc([N+](=O)[O-])c(N)cc1C(=O)O` it is 252 to 255 °C; for `O=C1Cc2ccc(F)cc2C(c2ccc(Cl)cc2)N1` (stereo not drawn) it is 131 to 133 °C.
Next, `O=[N+]([O-])c1ccccc1COc1cc[nH]n1`: 87 °C; `COc1ccc(Oc2ccccc2)c(NS(=O)(=O)C(F)(F)F)c1`: 57 to 58 °C; `CNc1nc2ccc(CCc3nc4cc(C)ccn4c3C)cc2o1`: 203 to 205 °C.
In turn, `O=C1C(=c2[nH]c(=c3[nH]c(=C4C(=O)c5ccccc5C4=O)c4ccccc34)c3ccccc23)C(=O)c2ccccc21` had a melting point greater than 300 °C.
Next, `NCCCCCCCCCCCCCCCCCC(=O)O`: 162 to 163 °C; `COc1ccc2c(c1)C(=O)C(n1ccnc1)CO2` (stereo not drawn): 150 to 152 °C; `CCSC[C@@H]1[C@@H](c2ccc(Cl)c(Cl)c2)C[C@@H]2CC[C@H]1N2C`: 69 to 71 °C.
The figure for `CCOCc1nc2c(N)nc3ccccc3c2n1CC1(OCCS(C)(=O)=O)CCN(C(C)=O)CC1` is 208 to 210 °C; for `CCCCCCOc1ccc(NC(=O)c2cn(-c3ccc(F)cc3)nc2C)cc1C#N` it is 160 to 161 °C; for `CCC(C)NC(=O)NCC=CCOc1cc(CN2CCCCC2)ccn1` (stereo not drawn) it is 72 to 74 °C.
Next, `CCN(CC)c1ccc2cc(C(=O)NN)oc2c1`: 127 to 129 °C.
For the compound `Cc1cnc2c(c1)c(C#N)c(-c1ccc(S(=O)(=O)N[C@@H](C)C(F)(F)F)cn1)n2C1CCC1`, the melting point was in the range of 177 to 179 °C.
Next, `O=CCNc1[nH]c(-c2ccc(F)cc2)nc1-c1ccccc1`: 256 to 258 °C; `Clc1ccccc1-c1cc[nH]n1`: 93 °C; `O=C(O)COCC(=O)NC12CC3CC(CC(C3)C1)C2`: 181 to 183 °C.
The compound `O=C(O)CCc1ccc(O)c(C=Nc2cc(S(=O)(=O)O)ccc2O)c1` showed a melting point greater than 275 °C.
The figure for `CC(C)N(CCSc1ccc(F)cc1)C(=O)Oc1ccccc1` is 53 to 58 °C; for `CC(C)(C)C(=O)Nc1cccc(-c2ccc(C3CCNC3=O)cc2F)n1` (stereo not drawn) it is 162 to 165 °C; for `COc1ccc(C2=C(Cl)C(=O)C2)cc1` it is 96 to 98 °C.
The figure for `COc1ccsc1NC(=O)Nc1cc([N+](=O)[O-])ccc1O` is 173 °C; for `COCCc1ccc(OCC(O)CNC(C)COc2ccc(O)c(C(N)=O)c2)cc1` (stereo not drawn) it is 139 to 142 °C.
The figure for `CS(=O)(=O)c1ccc(-c2cnn(CC(F)(F)F)c(=O)c2Oc2ccc(-c3ccccc3)cc2)cc1` is 163 to 165 °C; for `NC(=O)CN1C(=O)[C@@H](N)[C@H](c2ccccc2)Sc2ccccc21` (relative stereo) it is 196 to 200 °C.
In turn, `COc1nc(N)nc(OC(F)(F)F)n1` showed a melting point of 69 to 91 °C.
The figure for `Cc1ccc(S(=O)(=O)OCC2Cc3cccc(Br)c3O2)cc1` (stereo not drawn) is 120 to 122 °C; for `CCn1ncnc1COc1nn2c(-c3ccc(F)cc3)nncc2c1-c1ccccc1F` it is 179 °C; for `COc1ccc(-c2nc(N3CCCC3)c3c(C)c(C#N)sc3n2)cc1` it is 176 to 178 °C.
Compound `Cc1nc(N2CCCC2)sc1C(=O)c1ccc(Cl)c([N+](=O)[O-])c1` yielded a melting point of 168 to 171 °C.
In turn, `Cc1ccc2c3c(ccc2n1)OCC(CN1C2CCC1CC(O)(c1cccc(C(F)(F)F)c1)C2)O3` (stereo not drawn) registered a melting point of 146 to 150 °C.
Compound `COc1cccc2c1C(=O)C(c1c(Cl)cccc1Cl)C2=O` (stereo not drawn) returned a melting point of 163 to 165 °C.
`CCC(CC)(CC(=O)Nc1ccc2ccc(OCc3ccc4ccc(F)cc4n3)cc2c1)C(=O)O`: the melting point is 164 to 166 °C.
Next, `COC(=O)C1=C(CO)NC(C)=C(C(=O)OCC(C)(C)C)C1c1ccccc1C#N` (stereo not drawn): 178 to 180 °C; `CCOC(=O)C1(Nc2cc(Cl)cc(Cl)c2)CC(C(=O)O)Nc2cc(Cl)cc(Cl)c21` (stereo not drawn): 92 to 94 °C; `Clc1cncc(-n2ccc3ccccc32)c1`: 56 to 57 °C.
The figure for `CCCCOc1nc(N)c2[nH]c(=O)n(CCCCN(CCN3CCCC3)S(=O)(=O)c3cccc(CC(=O)O)c3)c2n1` is 192 to 193 °C.
On to `CC(C)n1nc(-c2cnc(N)nc2-c2ccc(Cl)c(Cl)c2)ccc1=O`, for which the melting point amounted to 176 °C.
Next, `Cc1ccc(C(=O)NCCCSc2ccncc2)cc1`: 110 to 111 °C; `Cc1c(C(=O)Nc2ccc(N3CCN(C4CCSCC4)CC3)c(C#N)c2)cnn1-c1ccc(Cl)cc1`: 281 °C.
Next, `COc1ccc(CNc2nnc(N3CCC(O)CC3)c3ccc(C#N)cc23)cc1Cl`: 172 to 174 °C; `CCCCNC(=O)Cc1ccccc1`: 56 to 57 °C; `N=C(NO)c1ccc(-c2ccc(-c3ccc(C(=N)NO)o3)o2)nc1`: 248 to 250 °C.
The figure for `O=c1c(CCCc2nc3ccccc3s2)cc2cccnc2n1-c1cccc([N+](=O)[O-])c1` is 185 to 186 °C.
